Results: patent US20130137724A1, “PHARMACEUTICAL COMPOSITIONS COMPRISING 7-(1H-IMIDAZOL-4-YLMETHYL)-5,6,7,8-TETRAHYDRO-QUINOLINE FOR RETINAL NEUROPROTECTION” (ALLERGAN, INC., priority 2011, published 2013)

Columns and labels:
[1] = target: T1, α2A-adrenergic receptor (Homo sapiens, UniProt P08913); details: for Percent of Bmax Decrease: 1 μM compound, 24 hours, HEK 293T cells stably transfected with α2A-adrenergic receptor; for down-regulation of alpha2A receptor / receptor density: binding studies, result in words
T1 sequence (P08913 1-465): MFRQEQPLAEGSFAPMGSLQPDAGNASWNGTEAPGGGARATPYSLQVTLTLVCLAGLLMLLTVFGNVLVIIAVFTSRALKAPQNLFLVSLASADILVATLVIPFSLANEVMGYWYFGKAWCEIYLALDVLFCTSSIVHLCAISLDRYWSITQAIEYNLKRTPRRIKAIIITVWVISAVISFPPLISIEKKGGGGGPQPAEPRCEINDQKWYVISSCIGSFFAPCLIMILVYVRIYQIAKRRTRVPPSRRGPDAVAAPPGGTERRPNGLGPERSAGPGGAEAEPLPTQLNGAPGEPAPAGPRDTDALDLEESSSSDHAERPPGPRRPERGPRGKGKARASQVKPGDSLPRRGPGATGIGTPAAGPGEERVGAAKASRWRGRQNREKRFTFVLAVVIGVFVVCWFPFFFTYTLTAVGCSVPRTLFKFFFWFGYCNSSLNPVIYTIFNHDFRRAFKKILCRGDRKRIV
Procedure: Human embryonic kidney (HEK) 293T cells stably transfected with the α2A-adrenergic receptor were grown to 50-60% confluency on T-175 culture flasks in DMEM (Gibco, cat. #11995), 10% FBS (Gibco, cat. #16140), 0.25 ug/mL puromycin (Sigma, cat. #P-8833), and 1% antibiotic-antimycotic (Gibco, cat. #15240) maintained at 37° C. and 5% CO2. […] The cells were then washed with room temperature Dulbecco's phosphate buffered saline (DPBS; Gibco, cat. #14190).
Cells were harvested with 4° C. Tris-EDTA buffer [50 mM Tris-HCl, 5 mM EDTA; pH 7.4] and centrifuged at 5,000×g for 5 minutes at 4° C. Membrane preparation was conducted by resuspending the cell pellets in 4° C. Tris-EDTA buffer and lysed with a Polytron disrupter two times (setting 7, 5 seconds each). The lysed suspension was then centrifuged at ˜35,000×g for 32 minutes at 4° C. After decanting the supernatant, the pelleted material was further lysed in 4° C. Tris buffer [50 mM Tris-HCl; pH 8.0] using the Polytron disrupter (setting 4, 5 seconds). Membranes were then aliquoted, pelleted at ˜37,000×g for 32 minutes at 4° C., and stored at −80° C. until use.
Membranes were thawed and resuspended using a Polytron disrupter in 4° C. HBSS-HEPES buffer [1 part 1M HEPES: 5 parts 10× Hank's Balanced Salt Solution: 43.8 parts H2O; pH 7.4 with KOH] and quantified via Bradford assay. The quantified protein was further diluted with HBSS-HEPES buffer to achieve a 100 μg/mL concentration. Membrane suspension was plated in a 96-well plate at 200 μLs/well ±10 μM phentolamine HCl (Sigma, cat. #P-7547) and [Methyl-^3H] Rauwolscine (15 nM to 0.05 nM; PerkinElmer, cat. #NET722250UC). The assay plate was slowly shaken and incubated at 25° C. for ninety minutes. Immediately following the above incubation, the assays were terminated by vacuum filtration over GF/B filters. Filters were then washed with 4° C. HBSS-HEPES buffer. The incorporated [Methyl-^3H] Rauwolscine was determined using a Microbeta 1450B liquid scintillation counter after the plates had dried overnight.

[2] = test system: visual acuity in normal DB rabbits; assay: Visual enhancement model, spatial sweep visual evoked potential (sVEP) acuity; assay type: in vivo, rabbit; details: intravenous route, 10-30 minutes post-dose
Procedure: Spatial sweep visual evoked potential (sVEP) acuity. Spatial sVEP acuity was assessed with PowerDiva software version 1.8. Recordings were made bilaterally in conscious animals.

[3] = Drug level in the retina with continuous subcutaneous pump dosing; assay type: in vivo, rat; details: 0.3 mg/kg/day and 1 mg/kg/day, rats
[4] = test system: blue light induced retinal damage; assay: Blue light model of retinal degeneration, retinal thickness by OCT; assay type: in vivo, rat; details: subcutaneous pump 0.3 and 1 mg/kg/day from two days before exposure, OCT 7 days post blue light, Sprague-Dawley rats
Procedure: Twenty 4-month old male Sprague-Dawley rats (body weight 470-550 g) were used in this study. The animals were exposed to room light on a 12 hour light/12 hour dark cycle before the experiment. All animals were dark adapted overnight (16-20 hours) before blue light. Under the intensity of 6100-6500 lux, rats were exposed to blue light for 4 hours. After the blue light, rats were placed in the dark for another 3 days before returning to normal 12 hour light/12 hour dark. Ocular Coherence Tomography (OCT) measurement was performed at 7 days post blue light exposure.
Histology studies have shown that the reduction in retinal thickness is attributable to loss of photoreceptors.

[5] = target: T2, alpha 2A receptor (Homo sapiens, UniProt P08913); assay: biochemical
T2 sequence (P08913 1-465): T1 sequence (P08913 1-465)
Procedure: The extent of binding is a measure of receptor activation. […] Membranes were thawed and resuspended using a Polytron disrupter in 4° C. membrane buffer and quantified via Bradford assay. […] The above mixture was then aliquoted, 50 μL/well, in a 96 well plate, combined with an equal volume of test compound dissolved in assay buffer [50 mM Tris-HCl, 100 mM NaCl, 5 mM MgCl2, 1 mM EDTA, and 1 mM DTT, pH 7.4 and 4° C.], and allowed to incubate for 5 minutes. […] Assays were terminated by vacuum filtration over GF/B filters blocked with 0.5% BSA.

For `Brc1c(N=C2NCCN2)ccc2nccnc12` [Brimonidine, (5-bromo-quinoxalin-6-yl)-imidazolidin-2-ylidene-amine, reference compound], the “Percent of Bmax Decrease” value [1] was −45% and the “down-regulation of alpha2A receptor / receptor density” value [1] was “induced a strong reduction in the alpha 2A receptor density”.

For `c1cnc2c(c1)CC[C@H](Cc1c[nH]cn1)C2` [(S)-(+)-7-(1H-Imidazol-4-ylmethyl)-5,6,7,8-tetrahydro-quinoline], the “visual acuity (sVEP)” value [2] was “enhances visual acuity”, the “drug levels in the retina” value [3] was 1.3 ng/g and the “damage caused by blue light (retinal thickness by OCT)” value [4] was “significantly reduced the damage caused by blue light”. For the same molecule, the “Percent of Bmax Decrease” value [1] was −25%, the “down-regulation of alpha2A receptor / receptor density” value [1] was “induces very little down-regulation of alpha2A receptor” and the EC50 [5] was < 1 nM. The “Relative Efficacy” value ([5]; efficacy relative to the full agonist brimonidine) was 0.6.
